{"source": "PubChem BioAssay (NCI)", "experiment_in_all_cases": "NCI anticancer screen, dose series, 48 h", "key": {"786-0 renal": {"test_system": "786-0 renal"}, "A498 renal": {"test_system": "A498 renal"}, "A549 NSCLC": {"test_system": "A549 NSCLC"}, "ACHN renal": {"test_system": "ACHN renal"}, "BT-549 breast": {"test_system": "BT-549 breast"}, "CAKI-1 renal": {"test_system": "CAKI-1 renal"}, "CCRF-CEM leukemia": {"test_system": "CCRF-CEM leukemia"}, "COLO 205 colon": {"test_system": "COLO 205 colon"}, "DU-145 prostate": {"test_system": "DU-145 prostate"}, "EKVX NSCLC": {"test_system": "EKVX NSCLC"}, "HCC-2998 colon": {"test_system": "HCC-2998 colon"}, "HCT-116 colon": {"test_system": "HCT-116 colon"}, "HCT-15 colon": {"test_system": "HCT-15 colon"}, "HL-60(TB) leukemia": {"test_system": "HL-60(TB) leukemia"}, "HOP-62 NSCLC": {"test_system": "HOP-62 NSCLC"}, "HOP-92 NSCLC": {"test_system": "HOP-92 NSCLC"}, "HS 578T breast": {"test_system": "HS 578T breast"}, "HT29 colon": {"test_system": "HT29 colon"}, "IGROV1 ovarian": {"test_system": "IGROV1 ovarian"}, "K-562 leukemia": {"test_system": "K-562 leukemia"}, "KM12 colon": {"test_system": "KM12 colon"}, "LOX IMVI melanoma": {"test_system": "LOX IMVI melanoma"}, "M14 melanoma": {"test_system": "M14 melanoma"}, "MALME-3M melanoma": {"test_system": "MALME-3M melanoma"}, "MCF7 breast": {"test_system": "MCF7 breast"}, "MDA-MB-231 breast": {"test_system": "MDA-MB-231 breast"}, "MDA-MB-435": {"test_system": "MDA-MB-435"}, "MDA-N": {"test_system": "MDA-N"}, "MOLT-4 leukemia": {"test_system": "MOLT-4 leukemia"}, "NCI-H226 lung": {"test_system": "NCI-H226 lung"}, "NCI-H23 lung": {"test_system": "NCI-H23 lung"}, "NCI-H460 lung": {"test_system": "NCI-H460 lung"}, "NCI-H522 lung": {"test_system": "NCI-H522 lung"}, "NCI/ADR-RES ovarian": {"test_system": "NCI/ADR-RES ovarian"}, "OVCAR-3 ovarian": {"test_system": "OVCAR-3 ovarian"}, "OVCAR-4 ovarian": {"test_system": "OVCAR-4 ovarian"}, "OVCAR-5 ovarian": {"test_system": "OVCAR-5 ovarian"}, "OVCAR-8 ovarian": {"test_system": "OVCAR-8 ovarian"}, "PC-3 prostate": {"test_system": "PC-3 prostate"}, "RPMI-8226 leukemia": {"test_system": "RPMI-8226 leukemia"}, "RXF 393 renal": {"test_system": "RXF 393 renal"}, "SF-268 CNS": {"test_system": "SF-268 CNS"}, "SF-295 CNS": {"test_system": "SF-295 CNS"}, "SF-539 CNS": {"test_system": "SF-539 CNS"}, "SK-MEL-2 melanoma": {"test_system": "SK-MEL-2 melanoma"}, "SK-MEL-28 melanoma": {"test_system": "SK-MEL-28 melanoma"}, "SK-MEL-5 melanoma": {"test_system": "SK-MEL-5 melanoma"}, "SK-OV-3 ovarian": {"test_system": "SK-OV-3 ovarian"}, "SN12C renal": {"test_system": "SN12C renal"}, "SNB-19 CNS": {"test_system": "SNB-19 CNS"}, "SNB-75 CNS": {"test_system": "SNB-75 CNS"}, "SR leukemia": {"test_system": "SR leukemia"}, "SW-620 colon": {"test_system": "SW-620 colon"}, "T-47D breast": {"test_system": "T-47D breast"}, "TK-10 renal": {"test_system": "TK-10 renal"}, "U251 CNS": {"test_system": "U251 CNS"}, "UACC-257 melanoma": {"test_system": "UACC-257 melanoma"}, "UACC-62 melanoma": {"test_system": "UACC-62 melanoma"}, "UO-31 renal": {"test_system": "UO-31 renal"}}, "note": "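Growth conditions: 96-well plates. Treatment: test compound, 48 hours, 5 concentrations. Analysis: linear interpolation between bracketing concentrations; unreached endpoints set to highest concentration. TGI: total growth inhibition.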", "data": [{"smiles": "C=CCCCCNC(=O)C[C@@H]1C2=C(CC[C@H]1O[Si](C)(C)C(C)(C)C)N1C(=O)CCC/C=C\\C1C2", "note": "(some centres undefined)", "values": [{"measurement": "TGI", "setting": "786-0 renal", "result": 28.7, "unit": "µM"}, {"measurement": "TGI", "setting": "A498 renal", "result": 28.4, "unit": "µM"}, {"measurement": "TGI", "setting": "A549 NSCLC", "result": 25.8, "unit": "µM"}, {"measurement": "TGI", "setting": "ACHN renal", "result": 28.7, "unit": "µM"}, {"measurement": "TGI", "setting": "BT-549 breast", "result": 30.1, "unit": "µM"}, {"measurement": "TGI", "setting": "CAKI-1 renal", "result": 24.8, "unit": "µM"}, {"measurement": "TGI", "setting": "CCRF-CEM leukemia", "result": 25.7, "unit": "µM"}, {"measurement": "TGI", "setting": "COLO 205 colon", "result": 26.7, "unit": "µM"}, {"measurement": "TGI", "setting": "DU-145 prostate", "result": 30.1, "unit": "µM"}, {"measurement": "TGI", "setting": "EKVX NSCLC", "result": 31.1, "unit": "µM"}, {"measurement": "TGI", "setting": "HCC-2998 colon", "result": 22.1, "unit": "µM"}, {"measurement": "TGI", "setting": "HCT-116 colon", "result": 26, "unit": "µM"}, {"measurement": "TGI", "setting": "HCT-15 colon", "result": 27, "unit": "µM"}, {"measurement": "TGI", "setting": "HL-60(TB) leukemia", "result": 13.6, "unit": "µM"}, {"measurement": "TGI", "setting": "HOP-62 NSCLC", "result": 35.5, "unit": "µM"}, {"measurement": "TGI", "setting": "HOP-92 NSCLC", "result": 23.1, "unit": "µM"}, {"measurement": "TGI", "setting": "HS 578T breast", "result": 32.9, "unit": "µM"}, {"measurement": "TGI", "setting": "HT29 colon", "result": 24.7, "unit": "µM"}, {"measurement": "TGI", "setting": "IGROV1 ovarian", "result": 29.7, "unit": "µM"}, {"measurement": "TGI", "setting": "K-562 leukemia", "result": 20.9, "unit": "µM"}, {"measurement": "TGI", "setting": "KM12 colon", "result": 28.2, "unit": "µM"}, {"measurement": "TGI", "setting": "LOX IMVI melanoma", "result": 31.4, "unit": "µM"}, {"measurement": "TGI", "setting": "M14 melanoma", "result": 27.4, "unit": "µM"}, {"measurement": "TGI", "setting": "MALME-3M melanoma", "result": 28.2, "unit": "µM"}, {"measurement": "TGI", "setting": "MCF7 breast", "result": 24.7, "unit": "µM"}, {"measurement": "TGI", "setting": "MDA-MB-231 breast", "result": 26.1, "unit": "µM"}, {"measurement": "TGI", "setting": "MDA-MB-435", "result": 28.4, "unit": "µM"}, {"measurement": "TGI", "setting": "MDA-N", "result": 29.8, "unit": "µM"}, {"measurement": "TGI", "setting": "MOLT-4 leukemia", "result": 20, "unit": "µM"}, {"measurement": "TGI", "setting": "NCI-H226 lung", "result": 29.9, "unit": "µM"}, {"measurement": "TGI", "setting": "NCI-H23 lung", "result": 27.7, "unit": "µM"}, {"measurement": "TGI", "setting": "NCI-H460 lung", "result": 27.9, "unit": "µM"}, {"measurement": "TGI", "setting": "NCI-H522 lung", "result": 24.7, "unit": "µM"}, {"measurement": "TGI", "setting": "NCI/ADR-RES ovarian", "result": 24.7, "unit": "µM"}, {"measurement": "TGI", "setting": "OVCAR-3 ovarian", "result": 28, "unit": "µM"}, {"measurement": "TGI", "setting": "OVCAR-4 ovarian", "result": 25, "unit": "µM"}, {"measurement": "TGI", "setting": "OVCAR-5 ovarian", "result": 29.5, "unit": "µM"}, {"measurement": "TGI", "setting": "OVCAR-8 ovarian", "result": 28.2, "unit": "µM"}, {"measurement": "TGI", "setting": "PC-3 prostate", "result": 24.4, "unit": "µM"}, {"measurement": "TGI", "setting": "RPMI-8226 leukemia", "result": 22.1, "unit": "µM"}, {"measurement": "TGI", "setting": "RXF 393 renal", "result": 23.7, "unit": "µM"}, {"measurement": "TGI", "setting": "SF-268 CNS", "result": 29.9, "unit": "µM"}, {"measurement": "TGI", "setting": "SF-295 CNS", "result": 30.2, "unit": "µM"}, {"measurement": "TGI", "setting": "SF-539 CNS", "result": 31.3, "unit": "µM"}, {"measurement": "TGI", "setting": "SK-MEL-2 melanoma", "result": 26.1, "unit": "µM"}, {"measurement": "TGI", "setting": "SK-MEL-28 melanoma", "result": 29.7, "unit": "µM"}, {"measurement": "TGI", "setting": "SK-MEL-5 melanoma", "result": 27.1, "unit": "µM"}, {"measurement": "TGI", "setting": "SK-OV-3 ovarian", "result": 31.1, "unit": "µM"}, {"measurement": "TGI", "setting": "SN12C renal", "result": 28.8, "unit": "µM"}, {"measurement": "TGI", "setting": "SNB-19 CNS", "result": 27.4, "unit": "µM"}, {"measurement": "TGI", "setting": "SNB-75 CNS", "result": 30.7, "unit": "µM"}, {"measurement": "TGI", "setting": "SR leukemia", "result": 23.4, "unit": "µM"}, {"measurement": "TGI", "setting": "SW-620 colon", "result": 27.4, "unit": "µM"}, {"measurement": "TGI", "setting": "T-47D breast", "result": 29.8, "unit": "µM"}, {"measurement": "TGI", "setting": "TK-10 renal", "result": 29.6, "unit": "µM"}, {"measurement": "TGI", "setting": "U251 CNS", "result": 26.3, "unit": "µM"}, {"measurement": "TGI", "setting": "UACC-257 melanoma", "result": 25.8, "unit": "µM"}, {"measurement": "TGI", "setting": "UACC-62 melanoma", "result": 25.5, "unit": "µM"}, {"measurement": "TGI", "setting": "UO-31 renal", "result": 27.2, "unit": "µM"}]}]}
